This note sets out measurements from ChEMBL document CHEMBL3046496, “Hydrolysis and Phytotoxic Activity ofN-Aryl-3,4,5,6-tetrahydroisophthalimides” (Biosci Biotechnol Biochem, 1993).

What all share (assay type): ADME, organism-based
Series [1] can be described thus: Half life in culture medium of Echinochloa esculenta after 7 days by HPLC method.
Series [2] concerns Scenedesmus acutus. Nature of the series: Phytotoxic activity against Scenedesmus acutus assessed as protoporphyrin-IX accumulation at 1 uM incubated for 1 hr. The note with it: in vivo.
Series [3] can be described thus: Drug hydrolysis in culture medium of Echinochloa esculenta assessed as compound degradation measured at zero period in culture experiment by HPLC method. The note with it: read-out: Drug degradation.

As a reminder, the half-life is the time needed for the level to fall by half in the phase considered. `O=C1O/C(=N\c2ccc(Cl)cc2)C2=C1CCCC2` had a half-life in series [1] of 19.2 h. Besides, in series [2], the Activity was determined as 54.7 nmol/mL. The degraded in series [3] was determined as 10%.
With `O=C1C2=C(CCCC2)C(=O)N1c1ccc(Cl)cc1` [CHLOROPHTHALIUM], the Activity in series [2] came out at 68.2 nmol/mL.
In turn, `Cc1cc(Cl)ccc1/N=C1\OC(=O)C2=C1CCCC2` had a half-life in series [1] of 7.2 h. The degraded in series [3] turned out to be 33%.
The like results for `O=C1O/C(=N\c2ccc(OCc3ccc(Cl)cc3)cc2)C2=C1CCCC2` were, in that order, 57.6 h and 5%.
Regarding `O=C(O)C1=C(C(=O)Nc2ccc(Cl)cc2)CCCC1`, the Activity in series [2] was 17.6 nmol/mL.
Compound `C#CCOc1cc(/N=C2\OC(=O)C3=C2CCCC3)c(F)cc1Cl` gave a half-life in series [1] of 14.4 h. Besides, the degraded in series [3] is 32%.
For the compound `O=C1O/C(=N\c2ccc(Cl)cc2F)C2=C1CCCC2`, the degraded in series [3] was 68%.
